tested on: PC-3; assay: cells; design: MTS cell viability / proliferation assay of PC-3 prostate cancer cells; details: Homo sapiens, PC-3, 72 h; read-out: IC50 inhibiting PC-3
Description: Fifteen human cancer cell lines were tested in our studies. Initial screens used human lung cancer cell A549, human epithelial cervical cancer Hela cells, human prostate cancer PC-3 cells, human epidermoid cancer KB-31 cells, human breast cancer MDA-MB-231 cells, and human pancreatic cancer HPAF. These cell lines were obtained commercially from ATCC. The first six cell cultures were maintained in 75 cm^2 cell culture flasks in which the cells were passaged at 70–80% confluence every 2–3 days. All cancer cells were cultured in RPMI 1640 containing 10% fetal calf serum, 100 U/mL penicillin, 100 µg/mL streptomycin, and 2 mM L-lutamine (complete RPMI medium). All cancer cells were plated at 1×10^4 cells per well in a 96 well plate. Drugs of different concentrations were then added. MTS assays (CellTiter 96® AQueous One Solution Cell Proliferation Assay, Promega) were performed after 72 h post treatment to determine the cell viability following drug administration.

Point of comparison: Cc1ccc2nc(SCC(=O)Nc3ccccc3C(F)(F)F)c(C#N)cc2c1 [5r], IC50 40 µM. Against it:
- COc1ccc2nc(SCC(=O)Nc3ccccc3OC)c(C#N)cc2c1 [5a] — the same, 40 µM
- COc1ccc2nc(SCC(=O)Nc3cc(Cl)ccc3OC)c(C#N)cc2c1 [5b] — 4-fold lower, 10 µM
- COc1ccc(OC)c(NC(=O)CSc2nc3ccc(OC)cc3cc2C#N)c1 [5c] — 4-fold lower, 10 µM
- COc1ccc2nc(SCC(=O)Nc3ccccc3Br)c(C#N)cc2c1 [5d] — 4-fold lower, 10 µM
- COc1ccc2nc(SCC(=O)Nc3ccccc3Cl)c(C#N)cc2c1 [5e] — 4-fold lower, 10 µM
- COc1ccc2nc(SCC(=O)Nc3ccccn3)c(C#N)cc2c1 [5f] — 4-fold lower, 10 µM
- COc1ccc2nc(SCC(=O)Nc3ccc(Cl)cn3)c(C#N)cc2c1 [5g] — 4-fold lower, 10 µM
- COc1ccc2nc(SCC(=O)Nc3cnccn3)c(C#N)cc2c1 [5h] — 4-fold lower, 10 µM
- COc1ccc2nc(SCC(=O)Nc3cc(C(F)(F)F)ccc3C(F)(F)F)c(C#N)cc2c1 [5i] — 2-fold lower, 20 µM
- COc1ccc2nc(SCC(=O)Nc3nccs3)c(C#N)cc2c1 [5j] — 4-fold lower, 10 µM
- COc1ccc2nc(SCC(=O)Nc3ccccc3O)c(C#N)cc2c1 [5k] — within 1.5-fold, 30 µM
- COc1ccc2nc(SCC(=O)Nc3ccc(Cl)cc3Cl)c(C#N)cc2c1 [5l] — 4-fold lower, 10 µM
- CCc1cccc(CC)c1NC(=O)CSc1nc2ccc(OC)cc2cc1C#N [5m] — 2-fold lower, 20 µM
- COc1ccc2nc(SCC(=O)Nc3ccc(N(C)C)cc3)c(C#N)cc2c1 [5n] — 4-fold lower, 10 µM
- COc1ccc(C)cc1NC(=O)CSc1nc2ccc(Cl)cc2cc1C#N [5o] — 2-fold lower, 20 µM
- N#Cc1cc2cc(Cl)ccc2nc1SCC(=O)Nc1ccccc1C(F)(F)F [5p] — 4-fold lower, 10 µM
- COc1ccc(C)cc1NC(=O)CSc1nc2ccc(C)cc2cc1C#N [5q] — 2-fold lower, 20 µM
- COc1ccc(C)cc1NC(=O)CSc1nc2ccc(Br)cc2cc1C#N [5s] — the same, 40 µM
- N#Cc1cc2cc(Br)ccc2nc1SCC(=O)Nc1ccccc1C(F)(F)F [5t] — within 1.5-fold, 50 µM
- COc1ccc2nc(SCC(=O)Nc3cc(C)ccc3OC)c(C#N)cc2c1 [I2] — 40-fold lower, 1 µM

From PMC3637257, “A Novel Anti-Tumor Inhibitor Identified by Virtual Screen with PLK1 Structure and Zebrafish Assay” (PLoS ONE, 2013)
